Measured values: the supplement of paper PMC10307832

Assays:
Assay in all cases: relative viability (nuclei count vs DMSO), 5 days (fraction); higher = more cells survive
Sorafenib + OSI-027 = compound: CNC(=O)c1cc(Oc2ccc(NC(=O)Nc3ccc(Cl)c(C(F)(F)F)c3)cc2)ccn1 [Sorafenib] + COc1cccc2cc(-c3nc([C@H]4CC[C@H](C(=O)O)CC4)n4ncnc(N)c34)[nH]c12 [OSI-027] (partner 0.5 µM)
Procedure, shortened: (§1)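 Nuclei were stained with Hoechst during a one-step fixation (final 0.05% Triton X-100, 1% formaldehyde, 1 ug/ml Hoechst) carried out 5 days after dosing, then counted on 4× images. The cells, lung cancer lines in 1536-well plates, had been dosed by pin tool the day after seeding with one drug alone or a fixed anchor-drug dose plus five library-drug doses (not always all listed) in √10 steps. Relative viability is the nuclei count in treated wells divided by that in vehicle wells, and each value is the median of duplicate plates.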

Sorafenib + Lapatinib = compound: CNC(=O)c1cc(Oc2ccc(NC(=O)Nc3ccc(Cl)c(C(F)(F)F)c3)cc2)ccn1 [Sorafenib] + CS(=O)(=O)CCNCc1ccc(-c2ccc3ncnc(Nc4ccc(OCc5cccc(F)c5)c(Cl)c4)c3c2)o1 [Lapatinib] (partner 2 µM)
Procedure, shortened: as §1

Sorafenib + Linsitinib = compound: CNC(=O)c1cc(Oc2ccc(NC(=O)Nc3ccc(Cl)c(C(F)(F)F)c3)cc2)ccn1 [Sorafenib] + C[C@]1(O)C[C@@H](c2nc(-c3ccc4ccc(-c5ccccc5)nc4c3)c3c(N)nccn32)C1 [Linsitinib] (partner 1 µM)
Procedure, shortened: as §1

Sorafenib + AZD7762 = compound: CNC(=O)c1cc(Oc2ccc(NC(=O)Nc3ccc(Cl)c(C(F)(F)F)c3)cc2)ccn1 [Sorafenib] + NC(=O)Nc1cc(-c2cccc(F)c2)sc1C(=O)N[C@H]1CCCNC1 [AZD7762] (partner 0.2 µM)
Procedure, shortened: as §1

Sorafenib + Dasatinib = compound: CNC(=O)c1cc(Oc2ccc(NC(=O)Nc3ccc(Cl)c(C(F)(F)F)c3)cc2)ccn1 [Sorafenib] + Cc1nc(Nc2ncc(C(=O)Nc3c(C)cccc3Cl)s2)cc(N2CCN(CCO)CC2)n1 [Dasatinib] (partner 0.075 µM)
Procedure, shortened: as §1

| Cell Line | relative viability (Sorafenib + OSI-027; first compound 0.253 µM) | relative viability (Sorafenib + OSI-027; first compound 2.53 µM) | relative viability (Sorafenib + OSI-027; first compound 8 µM) | relative viability (Sorafenib + Lapatinib; first compound 0.08 µM) | relative viability (Sorafenib + Lapatinib; first compound 0.253 µM) | relative viability (Sorafenib + Lapatinib; first compound 2.53 µM) | relative viability (Sorafenib + Lapatinib; first compound 8 µM) | relative viability (Sorafenib + Linsitinib; first compound 0.08 µM) | relative viability (Sorafenib + Linsitinib; first compound 0.253 µM) | relative viability (Sorafenib + Linsitinib; first compound 2.53 µM) | relative viability (Sorafenib + Linsitinib; first compound 8 µM) | relative viability (Sorafenib + AZD7762; first compound 0.08 µM) | relative viability (Sorafenib + AZD7762; first compound 0.253 µM) | relative viability (Sorafenib + AZD7762; first compound 2.53 µM) | relative viability (Sorafenib + AZD7762; first compound 8 µM) | relative viability (Sorafenib + Dasatinib; first compound 0.08 µM) | relative viability (Sorafenib + Dasatinib; first compound 0.253 µM) | relative viability (Sorafenib + Dasatinib; first compound 2.53 µM) | relative viability (Sorafenib + Dasatinib; first compound 8 µM) | relative viability (Sorafenib + OSI-027; first compound 0.08 µM) |
| --- | --- | --- | --- | --- | --- | --- | --- | --- | --- | --- | --- | --- | --- | --- | --- | --- | --- | --- | --- | --- |
| NCI-H23 | 0.501 | 0.488 | 0.398 | 1.23 | 1.07 | 1.02 | 0.908 | 0.626 | 0.439 | 0.553 | 0.512 | 0.193 | 0.323 | 0.229 | 0.159 | 0.804 | 0.691 | 0.646 | 0.709 |  |
| RERF-LC-KJ | 0.502 | 0.649 | 0.397 | 0.917 | 0.782 | 0.838 | 0.778 | 0.873 | 0.872 | 0.798 | 0.739 | 1.09 | 0.781 | 0.941 | 0.897 | 0.967 | 0.668 | 0.77 | 0.401 | 0.601 |
| NCI-H3122 | 0.898 | 0.805 | 0.378 | 1.05 | 0.987 | 1.02 | 1.01 | 1.06 | 1.02 | 1.01 | 0.828 | 0.905 | 0.905 | 1.08 | 0.965 | 0.92 | 0.422 | 0.715 | 0.311 | 0.99 |
| EPLC-272H | 0.296 | 0.273 | 0.269 | 1.08 | 0.838 | 1.04 | 0.735 | 1.31 | 1.09 | 1.11 |  | 0.247 | 0.176 |  | 0.209 | 0.479 | 0.341 | 0.402 | 0.254 | 0.314 |
| NCI-H838 | 0.438 | 0.615 | 0.539 | 1.1 | 0.961 | 1.16 | 0.823 | 1.1 |  | 1.24 | 0.485 | 0.971 | 0.93 |  | 0.923 | 0.285 | 0.277 | 0.318 | 0.293 | 0.52 |
